Measurements from patent US12064437B2, “Methods for treating systemic lupus erythematosus and the use of biomarkers as a predictor of clinical sensitivity to therapies” (CELGENE CORPORATION, priority 2020, dated 2024).

Tests used:
Assay type in all cases: in vivo, human
[1] = test system: subjects with active autoantibody-positive SLE; test: Exposure-response analysis: logistic regression of SRI(4) response on iberdomide AUCss
Method: PK assessments were performed. Exposure-response analysis included subjects from Study SLE-002 who had both posthoc estimated iberdomide PK metric of AUCss from the final population PK model and efficacy data.
The effect of iberdomide exposure on SRI(4) response was further evaluated by multivariate logistic modeling. Subject characteristics of baseline oral OCS (yes as reference), baseline antimalarials (yes as reference), categorical variables of Type I IFN and IKZF3 (Aiolos) signature (low as reference) were tested in regression analysis. Subjects with IFKZ3 (Aiolos) high gene signature were associated with better response (p=0.033) (Table 2).

[2] = test system: subjects with active autoantibody-positive SLE; test: Phase 2b study in SLE: Lupus Low Disease Activity State (LLDAS) response; details: for percentages of LLDAS responders: Week 24; for LLDAS response at Week 24, stratified difference from placebo / percentage of subjects who achieved LLDAS response at Week 24: overall subjects; for percentage of subjects who achieved LLDAS response at Week 24: NRI, ITT
Method: (§1) The pharmacokinetics, pharmacodynamics (PD), efficacy, and safety of oral iberdomide ((S)-3-[4-({4-[(morpholin-4-yl)methyl]phenyl}methoxy)-1-oxo-1,3-dihydro-2H-isoindol-2-yl]piperidine-2,6-dione-hydrogen chloride (1/1)) were evaluated in a phase 2b study in subjects with active autoantibody-positive SLE.
(§2) Adult SLE patients (N=288) with a ≥6-month history of SLE and SLE Disease Activity Index (SLEDAI 2K) ≥6 were randomized to placebo (n=83) or iberdomide 0.15 mg QD (n=42), 0.3 mg QD (n=82), or 0.45 mg QD (n=81). Clinical response was determined by the SLE Responder Index 4 (SRI-4) at week 24 for all patients and within pre-specified biomarker-enriched subsets based on expression of Ikaros, Aiolos, the Type 1 IFN signature (IFI27, IFI44, IFI44L, RSAD2), and other gene modules measured from fingerstick blood collected at baseline (Modular Immune Profile Test, DxTerity Diagnostics, Inc.). The primary objective of the study was to evaluate the clinical efficacy of 3 doses of iberdomide (0.45 mg once per day [QD], 0.30 mg QD, or 0.15 mg QD) compared to placebo, for the treatment of active SLE using the SLE Responder Index at Week 24.
The percentages of LLDAS responders for key mRNA and DNA subgroups were as follows: • IKZF1 high: 23.4%, 17.0%, and 14.3% for 0.45 mg, 0.30 mg, and 0.15 mg QD iberdomide, respectively, compared with 12.5% for placebo. • IKZF3 high: 27.8%, 9.4%, 14.3%, respectively, compared with 11.1% for placebo. • Type 1 IFN module high: 17.5%, 14.3%, and 24.0%, respectively, compared with 8.3% for placebo. • Ikaros IFN module high: 16.1%, 14.3%, and 20.0%, respectively, compared with 8.2% for placebo. Drug Dose, Drug Concentration, and Relationship to Response

[3] = test system: subjects with active autoantibody-positive SLE; test: Phase 2b study in SLE: improvement of ≥50% from baseline in CLASI activity score; details: for percentage of subjects with improvement of ≥50% from baseline in CLASI activity score: baseline CLASI ≥8, Week 24
Method: as §1, §2
CLASI activity score at Week 24 was analyzed. Results for improvement of ≥50% from baseline in CLASI activity score at Week 24 were observed. Results are described as follows for overall subjects at each time point and for subgroups based on baseline characteristics and on mRNA and DNA expression as follows: […]

[4] = AUCss on IFKZ3 (Aiolos) High Subset
[5] = Ikaros IFN module high, 0.15 mg QD
[6] = Ikaros IFN module high, 0.30 mg QD
[7] = Ikaros IFN module high, 0.45 mg QD
[8] = Type 1 IFN module high, 0.15 mg QD
[9] = Type 1 IFN module high, 0.30 mg QD
[10] = Type 1 IFN module high, 0.45 mg QD

O=C1CC[C@H](N2Cc3c(OCc4ccc(CN5CCOCC5)cc4)cccc3C2=O)C(=O)N1 [iberdomide, (S)-3-[4-({4-[(morpholin-4-yl)methyl]phenyl}methoxy)-1-oxo-1,3-dihydro-2H-isoindol-2-yl]piperidine-2,6-dione-hydrogen chloride (1/1)]
OR (odds ratio) of Multivariate Logistic Model for SRI(4) [1, 4]: 1.102
Parameter Estimate of Multivariate Logistic Model for SRI(4) [1, 4]: 0.0969
relationship of binary response SRI(4) to iberdomide AUCss (logistic regression) ([1]; dose range 0.15 mg to 0.45 mg QD): no relationship
percentages of LLDAS responders ([2]; IKZF1 high, 0.15 mg QD): 14.3%
percentages of LLDAS responders ([2]; IKZF1 high, 0.30 mg QD): 17.0%
percentages of LLDAS responders ([2]; IKZF1 high, 0.45 mg QD): 23.4%
percentages of LLDAS responders ([2]; IKZF3 high, 0.15 mg QD): 14.3%
percentages of LLDAS responders ([2]; IKZF3 high, 0.30 mg QD): 9.4%
percentages of LLDAS responders ([2]; IKZF3 high, 0.45 mg QD): 27.8%
percentages of LLDAS responders [2, 5]: 20.0%
percentages of LLDAS responders [2, 6]: 14.3%
percentages of LLDAS responders [2, 7]: 16.1%
percentages of LLDAS responders [2, 8]: 24.0%
percentages of LLDAS responders [2, 9]: 14.3%
percentages of LLDAS responders [2, 10]: 17.5%
LLDAS response at Week 24, stratified difference from placebo ([2]; 0.15 mg QD): 6.7%
percentage of subjects who achieved LLDAS response at Week 24 ([2]; 0.15 mg QD): 19.0%
percentage of subjects who achieved LLDAS response at Week 24 ([2]; 0.30 mg QD): 17.1%
LLDAS response at Week 24, stratified difference from placebo ([2]; 0.45 mg QD): 6.9%
percentage of subjects who achieved LLDAS response at Week 24 ([2]; 0.45 mg QD): 19.8%
improvement of ≥50% from baseline in CLASI activity score, stratified difference from placebo ([3]; 0.45 mg QD, Week 8, ITT population using NRI): 14.3%
improvement of ≥50% from baseline in CLASI activity score, stratified difference from placebo ([3]; 0.45 mg QD, Week 12, ITT population using NRI): 12.2%
improvement of ≥50% from baseline in CLASI activity score, stratified difference from placebo ([3]; 0.45 mg QD, Week 16, ITT population using NRI): 18.2%
improvement of ≥50% from baseline in CLASI activity score, stratified difference from placebo ([3]; 0.45 mg QD, Week 20, ITT population using NRI): 12.3%
percentage of subjects with improvement of ≥50% from baseline in CLASI activity score ([3]; IKZF3 high, 0.15 mg QD): 50.0%
percentage of subjects with improvement of ≥50% from baseline in CLASI activity score ([3]; IKZF3 high, 0.30 mg QD): 33.3%
percentage of subjects with improvement of ≥50% from baseline in CLASI activity score ([3]; IKZF3 high, 0.45 mg QD): 77.8%
percentage of subjects with improvement of ≥50% from baseline in CLASI activity score [3, 5]: 54.5%
percentage of subjects with improvement of ≥50% from baseline in CLASI activity score [3, 6]: 52.4%
percentage of subjects with improvement of ≥50% from baseline in CLASI activity score [3, 7]: 63.6%
percentage of subjects with improvement of ≥50% from baseline in CLASI activity score [3, 8]: 66.7%
percentage of subjects with improvement of ≥50% from baseline in CLASI activity score [3, 9]: 52.4%
percentage of subjects with improvement of ≥50% from baseline in CLASI activity score [3, 10]: 61.9%
improvement of ≥50% from baseline in CLASI activity score, stratified difference from placebo ([3]; baseline CLASI activity score ≥8, 0.15 mg QD, Week 16): 10.6%
improvement of ≥50% from baseline in CLASI activity score, stratified difference from placebo ([3]; baseline CLASI activity score ≥8, 0.15 mg QD, Week 20): 35.3%
improvement of ≥50% from baseline in CLASI activity score, stratified difference from placebo ([3]; baseline CLASI activity score ≥8, 0.30 mg QD, Week 8): 23.6%
improvement of ≥50% from baseline in CLASI activity score, stratified difference from placebo ([3]; baseline CLASI activity score ≥8, 0.30 mg QD, Week 16): 3.1
improvement of ≥50% from baseline in CLASI activity score, stratified difference from placebo ([3]; baseline CLASI activity score ≥8, 0.45 mg QD, Week 4): 32.0%
improvement of ≥50% from baseline in CLASI activity score, stratified difference from placebo ([3]; baseline CLASI activity score ≥8, 0.45 mg QD, Week 16): 9.4%
